In patent publication US20240228572A1 (i2o Therapeutics, Inc., priority 2020, published 2024):
*1 amine or outer side, *2 acyl side, *3 side chain or, on linkers, in order; H or OH if unused. Where a SMILES comes first, the peptide text is derived from it. Bridges are numbered along the chain shown (N, C = ends). Side-chain parts run from the residue outwards. [ ]: non-standard residue; d: D form. The star is where a group is joined. C20 diacid = O=C(O)CCCCCCCCCCCCCCCCCCC(=O)*; γGlu = O=C(O)[C@H](CCC(=O)[*:2])N[*:1]; AEEA = NCCOCCOCC(=O)O; Aib = CC(C)(N)C(=O)O

Assays:
[1] = molecular target: T1, human Glucagon receptor (GCGR) (Homo sapiens, UniProt P47871); test: cAMP accumulation assay, CHO-K1 cells expressing human GCGR; format: cell-based; conditions: mean pEC50, Table 10
T1 construct: A cDNA fragment encoding the full-length open reading frame of the human GCGR; expressed in transfected cells; host or cells: CHO-K1, pcDNA3.1+, Lipofectamine 2000
Source text: In the presence of the non-specific cAMP/cGMP phosphodiesterase inhibitor, 3-isobutyl-1-methylxanthine (IBMX), accumulating cAMP can be measured in vitro using common detection methods. Thus, it is possible to estimate an in vitro potency (pEC50) for peptides activating each of these receptors using fit dose-response curves for cAMP accumulation.
A cDNA fragment encoding the full-length open reading frame of the cynomolgus monkey GLP-1R (Genebank accession #XM_028847603 was cloned into pcDNA3.1+ for expression in CHO-K1 cells. A cDNA fragment encoding the full-length open reading frame of the human GCGR (Genebank accession #NM_000160 was cloned into pcDNA3.1+ for expression in CHO-K1 cells. A cDNA fragment encoding the full-length open reading frame of the rat GCGR (Genebank accession #NM_12091 was cloned into pcDNA3.1+ for expression in CHO-K1 cells. A cDNA fragment encoding the full-length open reading frame of the cynomolgus monkey GCGR (Genebank accession #XM_005585255 was cloned into pcDNA3.1+ for expression in CHO-K1 cells.
On day 1, CHO-K1 cells were plated at 1.5 million cells per T75 flask in 90% F12-K media supplemented with 10% FBS. On day 3 cells were transfected with 40 mcg of each expression plasmid using Lipofectamine 2000 transfection reagent. On day 5, cells were dispensed at 1000 cells per well in white 384-well OptiPlates in 5 mcL of assay buffer consisting of 1×HBSS, 5 mM HEPES, 0.5 mM IBMX, and 0.1% casein.
Peptides were serially diluted 4-fold in assay buffer to final concentrations ranging from 1×10^−9 M to 9.5×10^−16 M. Two assay controls consisting of 50 mcM forskolin (cAMP system maximum) or assay buffer only (cAMP system minimum) were also prepared. Five microliters of each peptide-concentration, or assay control, was added to triplicate wells and incubated for thirty minutes at room temperature. During this incubation step a 4× europium labelled cAMP tracer solution and a 4× Ulight®-anti-cAMP solution (consisting of an anti-cAMP monoclonal antibody labelled with Ulight™ dye) was prepared according to the manufacturer's protocol (PerkinElmer LANCE Ultra cAMP kit). Following this incubation, 5 mcL europium labelled cAMP and 5 mcL Ulight anti-cAMP antibody was added to each well. The plate was covered to prevent evaporation and incubated for 60 minutes at room temperature in the dark. Plates were read on an Envision fluorescent plate reader (PerkinElmer).
Test values were first normalized to the system maximum and system minimum averaged values in Excel using the formula: (test value−system min average)/(system max average -system min average)*100. Normalized test values represent a baseline corrected percentage of the system maximum cAMP response induced by forskolin. Data from up to 3 replicate tests were analyzed for each peptide. Potency values were estimated using GraphPad Prism software (v7.04) by fitting data to a 4-parameter logistic curve model: Y=Bottom+(Top−Bottom)/(1+10^((LogEC50−X))). The Hill slope was constrained to 1.0. EC50 values were converted to pEC50 values using the formula: pEC50=−Log (EC50).

[2] = molecular target: T2, human GLP-1 receptor (GLP-1R) (Homo sapiens, UniProt P43220); test: cAMP accumulation assay, CHO-K1 cells stably expressing human GLP-1R; format: cell-based; conditions: cAMP accumulation, mean pEC50, Table 10
T2 construct: expressed in transfected cells
T2 sequence (P43220 24-463): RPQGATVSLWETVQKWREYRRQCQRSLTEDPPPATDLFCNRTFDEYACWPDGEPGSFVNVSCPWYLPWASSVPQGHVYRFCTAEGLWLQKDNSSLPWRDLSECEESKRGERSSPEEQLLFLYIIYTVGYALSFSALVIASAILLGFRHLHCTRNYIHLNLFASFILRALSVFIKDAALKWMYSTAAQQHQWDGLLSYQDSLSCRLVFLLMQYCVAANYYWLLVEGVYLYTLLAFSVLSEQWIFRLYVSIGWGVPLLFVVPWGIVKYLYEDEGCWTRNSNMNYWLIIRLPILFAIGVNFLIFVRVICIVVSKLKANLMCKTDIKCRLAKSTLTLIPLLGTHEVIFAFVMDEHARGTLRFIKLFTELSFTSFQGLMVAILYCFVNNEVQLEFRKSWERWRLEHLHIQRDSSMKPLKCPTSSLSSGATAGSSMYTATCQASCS

T1 sequence (P47871 26-477): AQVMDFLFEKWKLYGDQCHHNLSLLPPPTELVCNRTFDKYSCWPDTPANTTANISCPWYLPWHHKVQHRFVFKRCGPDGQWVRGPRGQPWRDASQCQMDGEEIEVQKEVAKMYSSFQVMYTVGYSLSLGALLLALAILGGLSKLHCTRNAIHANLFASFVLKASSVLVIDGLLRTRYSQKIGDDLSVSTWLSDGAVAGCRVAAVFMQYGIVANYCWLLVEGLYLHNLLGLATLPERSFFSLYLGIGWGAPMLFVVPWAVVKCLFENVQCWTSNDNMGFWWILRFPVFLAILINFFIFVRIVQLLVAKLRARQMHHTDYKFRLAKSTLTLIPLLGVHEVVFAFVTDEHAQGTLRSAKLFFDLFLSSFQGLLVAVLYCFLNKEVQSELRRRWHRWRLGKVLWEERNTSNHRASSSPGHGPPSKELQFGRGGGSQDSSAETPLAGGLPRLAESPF

SMILES	EC50 [1] [pM]	EC50 [2] [pM]
CC(C)C[C@H](NC(=O)[C@H](Cc1ccc(O)cc1)NC(=O)[C@H](CCCCN)NC(=O)[C@H](CO)NC(=O)[C@H](Cc1ccc(O)cc1)NC(=O)[C@H](CC(=O)O)NC(=O)[C@H](CO)NC(=O)[C@@H](NC(=O)[C@H](Cc1ccccc1)NC(=O)[C@@H](NC(=O)CNC(=O)[C@H](Cc1c[nH]cn1)NC(=O)[C@H](CO)NC(=O)[C@@H](N)Cc1ccc(O)cc1)[C@@H](C)O)[C@@H](C)O)C(=O)N[C@@H](CC(=O)O)C(=O)N[C@@H](CCCCNC(=O)CC[C@H](NC(=O)CC[C@H](NC(=O)COCCOCCNC(=O)CCCCCCCCCCCCCCCCCCC(=O)O)C(=O)O)C(=O)O)C(=O)N[C@@H](CCCCN)C(=O)N[C@@H](Cc1ccc(O)cc1)C(=O)N[C@@H](C)C(=O)N[C@@H](CCC(N)=O)C(=O)N[C@@H](CCC(=O)O)C(=O)N[C@@H](Cc1ccccc1)C(=O)NC(C)(C)C(=O)N[C@@H](CCCCN)C(=O)N[C@@H](Cc1c[nH]c2ccccc12)C(=O)N[C@@H](CC(C)C)C(=O)N[C@@H](CCC(=O)O)C(=O)N[C@@H](CC(=O)O)C(=O)N[C@@H](CCC(=O)O)C(=O)N1CCC[C@H]1C(=O)N[C@@H](CO)C(=O)N[C@@H](CO)C(=O)NCC(=O)N[C@@H](C)C(=O)N1CCC[C@H]1C(=O)N1CCC[C@H]1C(=O)N1CCC[C@H]1C(=O)N[C@@H](CO)C(=O)O [Compound A9] (H-YSHGTFTSDYSKYLDK([γGlu-γGlu-AEEA-C20 diacid])KYAQEF[Aib]KWLEDEPSSGAPPPS-OH; N-terminus assumed)	25.1	> 1000
CC(C)C[C@H](NC(=O)[C@H](Cc1ccc(O)cc1)NC(=O)[C@H](CCCCN)NC(=O)[C@H](CO)NC(=O)[C@H](Cc1ccc(O)cc1)NC(=O)[C@H](CC(=O)O)NC(=O)[C@H](CO)NC(=O)[C@@H](NC(=O)[C@H](Cc1ccccc1)NC(=O)[C@@H](NC(=O)CNC(=O)[C@H](Cc1c[nH]cn1)NC(=O)[C@H](CO)NC(=O)[C@@H](N)Cc1ccc(O)cc1)[C@@H](C)O)[C@@H](C)O)C(=O)N[C@@H](CC(=O)O)C(=O)N[C@@H](CCCCNC(=O)CC[C@H](NC(=O)CC[C@H](NC(=O)COCCOCCNC(=O)CCCCCCCCCCCCCCCCCCC(=O)O)C(=O)O)C(=O)O)C(=O)N[C@@H](CCCCN)C(=O)N[C@@H](Cc1ccc(O)cc1)C(=O)N[C@@H](C)C(=O)N[C@@H](CCC(N)=O)C(=O)N[C@@H](CCC(=O)O)C(=O)N[C@@H](Cc1ccccc1)C(=O)NC(C)(C)C(=O)N[C@@H](CO)C(=O)N[C@@H](Cc1c[nH]c2ccccc12)C(=O)N[C@@H](CC(C)C)C(=O)N[C@@H](CCC(=O)O)C(=O)N[C@@H](CC(=O)O)C(=O)N[C@@H](CCC(=O)O)C(=O)N1CCC[C@H]1C(=O)N[C@@H](CO)C(=O)N[C@@H](CO)C(=O)NCC(=O)N[C@@H](C)C(=O)N1CCC[C@H]1C(=O)N1CCC[C@H]1C(=O)N1CCC[C@H]1C(=O)N[C@@H](CO)C(=O)O [Compound A10] (H-YSHGTFTSDYSKYLDK([γGlu-γGlu-AEEA-C20 diacid])KYAQEF[Aib]SWLEDEPSSGAPPPS-OH; N-terminus assumed)	39.8	> 1000
CC(C)C[C@H](NC(=O)[C@H](Cc1ccc(O)cc1)NC(=O)[C@H](CCCCN)NC(=O)[C@H](CO)NC(=O)[C@H](Cc1ccc(O)cc1)NC(=O)[C@H](CC(=O)O)NC(=O)[C@H](CO)NC(=O)[C@@H](NC(=O)[C@H](Cc1ccccc1)NC(=O)[C@@H](NC(=O)CNC(=O)[C@H](Cc1c[nH]cn1)NC(=O)[C@H](CO)NC(=O)[C@@H](N)Cc1ccc(O)cc1)[C@@H](C)O)[C@@H](C)O)C(=O)N[C@@H](CC(=O)O)C(=O)N[C@@H](CCCCNC(=O)CC[C@H](NC(=O)CC[C@H](NC(=O)COCCOCCNC(=O)CCCCCCCCCCCCCCCCCCC(=O)O)C(=O)O)C(=O)O)C(=O)N[C@@H](CCCCN)C(=O)N[C@@H](Cc1ccc(O)cc1)C(=O)N[C@@H](C)C(=O)N[C@H]1CCCCNC(=O)CC[C@@H](C(=O)N[C@@H](Cc2c[nH]c3ccccc23)C(=O)N[C@@H](CC(C)C)C(=O)N[C@@H](CCC(=O)O)C(=O)N[C@@H](CC(=O)O)C(=O)N[C@@H](CCC(=O)O)C(=O)N2CCC[C@H]2C(=O)N[C@@H](CO)C(=O)N[C@@H](CO)C(=O)NCC(=O)N[C@@H](C)C(=O)N2CCC[C@H]2C(=O)N2CCC[C@H]2C(=O)N2CCC[C@H]2C(=O)N[C@@H](CO)C(=O)O)NC(=O)[C@H](C(C)C)NC(=O)[C@H](Cc2ccccc2)NC(=O)[C@H](CCC(=O)O)NC1=O [Compound A11] (H-YSHGTFTSDYSKYLDK([γGlu-γGlu-AEEA-C20 diacid])KYAKEFVEWLEDEPSSGAPPPS-OH; lactam 20-24)	2	> 1000
CC(C)C[C@H](NC(=O)[C@H](Cc1ccc(O)cc1)NC(=O)[C@H](CCCCN)NC(=O)[C@H](CO)NC(=O)[C@H](Cc1ccc(O)cc1)NC(=O)[C@H](CC(=O)O)NC(=O)[C@H](CO)NC(=O)[C@@H](NC(=O)[C@H](Cc1ccccc1)NC(=O)[C@@H](NC(=O)CNC(=O)[C@H](Cc1c[nH]cn1)NC(=O)[C@H](CO)NC(=O)[C@@H](N)Cc1ccc(O)cc1)[C@@H](C)O)[C@@H](C)O)C(=O)N[C@@H](CC(=O)O)C(=O)N[C@@H](CCCCNC(=O)CC[C@H](NC(=O)CC[C@H](NC(=O)COCCOCCNC(=O)CCCCCCCCCCCCCCCCCCC(=O)O)C(=O)O)C(=O)O)C(=O)N[C@@H](CCCCN)C(=O)N[C@@H](Cc1ccc(O)cc1)C(=O)N[C@@H](C)C(=O)N[C@H]1CCC(=O)NCCCC[C@@H](C(=O)N[C@@H](Cc2c[nH]c3ccccc23)C(=O)N[C@@H](CC(C)C)C(=O)N[C@@H](CCC(=O)O)C(=O)N[C@@H](CC(=O)O)C(=O)N[C@@H](CCC(=O)O)C(=O)N2CCC[C@H]2C(=O)N[C@@H](CO)C(=O)N[C@@H](CO)C(=O)NCC(=O)N[C@@H](C)C(=O)N2CCC[C@H]2C(=O)N2CCC[C@H]2C(=O)N2CCC[C@H]2C(=O)N[C@@H](CO)C(=O)O)NC(=O)[C@H](C(C)C)NC(=O)[C@H](Cc2ccccc2)NC(=O)[C@H](CCC(=O)O)NC1=O [Compound A12] (H-YSHGTFTSDYSKYLDK([γGlu-γGlu-AEEA-C20 diacid])KYAEEFVKWLEDEPSSGAPPPS-OH; lactam 20-24)	1.58	> 1000
CC(C)C[C@H](NC(=O)[C@H](Cc1ccc(O)cc1)NC(=O)[C@H](CCCCN)NC(=O)[C@H](CO)NC(=O)[C@H](Cc1ccc(O)cc1)NC(=O)[C@H](CC(=O)O)NC(=O)[C@H](CO)NC(=O)[C@@H](NC(=O)[C@H](Cc1ccccc1)NC(=O)[C@@H](NC(=O)CNC(=O)[C@H](Cc1c[nH]cn1)NC(=O)[C@H](CO)NC(=O)[C@@H](N)Cc1ccc(O)cc1)[C@@H](C)O)[C@@H](C)O)C(=O)N[C@@H](CC(=O)O)C(=O)N[C@@H](CCCCNC(=O)CC[C@H](NC(=O)CC[C@H](NC(=O)CCCCCCCCCCCCCCCCCCC(=O)O)C(=O)O)C(=O)O)C(=O)N[C@@H](CCCCN)C(=O)N[C@@H](Cc1ccc(O)cc1)C(=O)N[C@@H](C)C(=O)N[C@@H](CCC(N)=O)C(=O)N[C@@H](CCC(=O)O)C(=O)N[C@@H](Cc1ccccc1)C(=O)N[C@H](C(=O)NC(C)(C)C(=O)N[C@@H](Cc1c[nH]c2ccccc12)C(=O)N[C@@H](CC(C)C)C(=O)N[C@@H](CCC(=O)O)C(=O)N[C@@H](CC(=O)O)C(=O)N[C@@H](CCC(=O)O)C(=O)N1CCC[C@H]1C(=O)N[C@@H](CO)C(=O)N[C@@H](CO)C(=O)NCC(=O)N[C@@H](C)C(=O)N1CCC[C@H]1C(=O)N1CCC[C@H]1C(=O)N1CCC[C@H]1C(=O)N[C@@H](CO)C(=O)O)C(C)C [Compound A13] (H-YSHGTFTSDYSKYLDK([γGlu-γGlu-C20 diacid])KYAQEFV[Aib]WLEDEPSSGAPPPS-OH)	1	> 1000
